Values joined by “and” are separate entries in the source; they are usually repeats but may differ in a detail not shown here. Identical values can stand only once.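 Dose response: 5 concentrations. Exposure: 48 h. Format: 96-well plates. Endpoint: linear interpolation; highest concentration if not reached. GI50 marks 50% less growth. TGI: total growth inhibition.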
Legend:
Assay in all cases: NCI-60 cell line screen, 48 h
A549 NSCLC = test system: A549 NSCLC
CCRF-CEM leukemia = test system: CCRF-CEM leukemia
DMS 273 small cell lung = test system: DMS 273 small cell lung
HCC-2998 colon = test system: HCC-2998 colon
IGROV1 ovarian = test system: IGROV1 ovarian
M19-MEL melanoma = test system: M19-MEL melanoma
NCI-H522 lung = test system: NCI-H522 lung
OVCAR-3 ovarian = test system: OVCAR-3 ovarian
PC-3 prostate = test system: PC-3 prostate
SN12C renal = test system: SN12C renal

Structure (SMILES)	GI50 (A549 NSCLC)	TGI (A549 NSCLC)	GI50 (CCRF-CEM leukemia)	TGI (CCRF-CEM leukemia)	GI50 (DMS 273 small cell lung)	TGI (DMS 273 small cell lung)	GI50 (HCC-2998 colon)	TGI (HCC-2998 colon)	GI50 (IGROV1 ovarian)	TGI (IGROV1 ovarian)	GI50 (M19-MEL melanoma)	TGI (M19-MEL melanoma)	GI50 (NCI-H522 lung)	TGI (NCI-H522 lung)	GI50 (OVCAR-3 ovarian)	TGI (OVCAR-3 ovarian)	GI50 (PC-3 prostate)	TGI (PC-3 prostate)	GI50 (SN12C renal)	TGI (SN12C renal)
C/C(=N\NC(=O)c1ccccc1O)c1cccc(/C(C)=N/NC(=O)c2ccccc2O)n1	> 70800 nM	> 100 µM	693 nM	48.8 µM	20400 nM	> 100 µM	489 nM	11.5 µM and > 58.9 µM	2.4 µM and 15.4 µM	43.8 µM and > 100 µM	11.5 µM	> 74 µM	4750 nM and 856 nM	27.8 µM and > 100 µM	1060 nM and 362 nM	24300 nM and > 53500 nM	626 nM	> 100 µM	731 nM	> 100 µM
Nc1ncnc2c(C3OC(CO)C(O)C3O)[nH]nc12 (stereo not given)		9.43 µM	4680 nM and 2770 nM	73.9 µM		1.58 µM	57.5 nM	3.11 µM and 1.31 µM		8.6 µM		80.5 µM	239 nM	3.74 µM and 6.29 µM	168 nM and 71 nM	1790 nM and 377 nM	47.4 nM	8.97 µM	161 nM	1.68 µM and 1.09 µM
COc1cc2c(c(OC)c1OC)-c1ccc(SC)c(=O)cc1[C@@H](NCc1cccc(C#N)c1)CC2	< 7.5 nM	> 75 µM	< 7.5 nM	6.16 µM	< 7.5 nM	< 0.0075 µM		0.0515 µM	< 0.0075 µM	> 75 µM	< 0.0075 µM	42.4 µM	< 7.5 nM	0.0377 µM and < 0.0075 µM		49.3 nM			< 7.5 nM	66.1 µM
CCC[CH2][Ge]([CH2]CCC)([CH2]CCC)[O]C(=O)C(O)c1ccccc1 (stereo not given)	2000 nM	26 µM	207 nM	25.7 µM	1200 nM	11.9 µM	2690 nM	14.4 µM	9.44 µM	30.6 µM	8.65 µM	22.3 µM	411 nM	5.65 µM	1350 nM	18400 nM			4580 nM	23.4 µM

Reference: PubChem BioAssay (NCI)
